Source: PMC8315004, “Discovery of Small-Molecule Inhibitors of SARS-CoV-2 Proteins Using a Computational and Experimental Pipeline” (Frontiers in Molecular Biosciences, 2021)
Structures can show the parent of a compound that is named as a salt.

These compounds were tested against SARS-CoV-2 M^pro (Severe acute respiratory syndrome coronavirus 2, UniProt P0DTD1) (assay: biochemical). Conditions: not given.
Set-up: inhibition: dose or concentration left out as unconfirmed

With `CCOc1nc2cccc(C(=O)O)c2n1Cc1ccc(-c2ccccc2-c2nnn[nH]2)cc1` [Candesartan] the “effect in the FRET-based activity assay (in words)” value was “no effect”.

Same assay, conditions: initial screen, 100 μM of drug, Table S4

First: Nc1nc(=O)c2c([nH]1)NC[C@H](CNc1ccc(C(=O)N[C@@H](CCC(=O)[O-])C(=O)[O-])cc1)N2C=O.[Ca+2] [Calcium Levofolinate]
Second: Cc1cc(O)c(C(=O)N[C@@H](C(=O)N[C@@H]2C(=O)N3C(C(=O)O)=C(CSc4nnnn4C)CS[C@H]23)c2ccc(O)cc2)cn1 [Cefpiramide acid]
The “Normalized Percent FRET inhibition” value of the first is higher: 13% for the first, 7.373% for the second.

Going from `CO/N=C(\C(=O)N[C@@H]1C(=O)N2C(C(=O)O)=C(CSc3nnnn3C)CS[C@H]12)c1csc(N)n1.CO/N=C(\C(=O)N[C@@H]1C(=O)N2C(C(=O)O)=C(CSc3nnnn3C)CS[C@H]12)c1csc(N)n1.Cl` [Cefmenoxime hydrochloride] to `CCc1c2c(nc3ccc(OC(=O)N4CCC(N5CCCCC5)CC4)cc13)-c1cc3c(c(=O)n1C2)COC(=O)[C@]3(O)CC.Cl.O.O.O` [Irinotecan hydrochloride trihydrate], the “Normalized Percent FRET inhibition” value falls from -1.304% to -2.22%.

Compared with `CC(C)CN(C[C@@H](O)[C@H](Cc1ccccc1)NC(=O)O[C@H]1CO[C@H]2OCC[C@H]21)S(=O)(=O)c1ccc(N)cc1.CCO` [Darunavir Ethanolate], `CCC(=O)O[C@@H](O[P@](=O)(CCCCc1ccccc1)CC(=O)N1C[C@H](C2CCCCC2)C[C@H]1C(=O)[O-])C(C)C.[Na+]` [Fosinopril sodium] is higher in “Normalized Percent FRET inhibition” value: -1.838% for the first, 3.315% for the second.

Same assay, conditions: initial screen, 100 μM of drug, Table S4; 100 µM

For `CCN1CCN(C(=O)N[C@@H](C(=O)N[C@@H]2C(=O)N3C(C(=O)O)=C(CSc4nnnn4C)CS[C@H]23)c2ccc(O)cc2)C(=O)C1=O` [Cefoperazone sodium], the “Normalized Percent FRET inhibition” value was 14.81%.
With `CCN1CCN(C(=O)N[C@@H](C(=O)N[C@@H]2C(=O)N3C(C(=O)O)=C(CSc4nnnn4C)CS[C@H]23)c2ccc(O)cc2)C(=O)C1=O` [Cefoperazone] the “Normalized Percent FRET inhibition” value was -0.3067%.

Same assay, conditions: initial screen, Table S4; read-out: Normalized Percent FRET inhibition

Going from `CC1(C)CCC(CN2CCN(c3ccc(C(=O)NS(=O)(=O)c4ccc(NCC5CCOCC5)c([N+](=O)[O-])c4)c(Oc4cnc5[nH]ccc5c4)c3)CC2)=C(c2ccc(Cl)cc2)C1` [ABT199] to `COc1cc(N2CCC(N3CCN(C)CC3)CC2)ccc1Nc1ncc(Cl)c(Nc2ccccc2P(C)(C)=O)n1` [Brigatinib], the inhibition falls from 6.27% to 5.97%.

First: C[C@H]1O[C@H](O[C@H]2[C@H](O)[C@@H](O)[C@@H](O[C@H]3[C@H](O)[C@@H](O)C(O)O[C@@H]3CO)O[C@@H]2CO)[C@H](O)[C@@H](O)[C@@H]1N[C@H]1C=C(CO)[C@@H](O)[C@H](O)[C@H]1O (stereo partly drawn) [Acarbose]
Second: CC(C)=CCC[C@](C)(O[C@@H]1O[C@H](CO)[C@@H](O)[C@H](O)[C@H]1O)[C@H]1CC[C@]2(C)[C@@H]1[C@H](O)C[C@@H]1[C@@]3(C)CC[C@H](O)C(C)(C)[C@@H]3[C@@H](O[C@@H]3O[C@H](CO)[C@@H](O)[C@H](O)[C@H]3O)C[C@]12C [Ginsenoside Rg1]
The inhibition of the first is lower: -3.44% for the first, 4.19% for the second.

First: C[C@H]1CN(C[C@H](Cc2ccccc2)C(=O)NCC(=O)O)CC[C@@]1(C)c1cccc(O)c1 [Alvimopan]
Second: CC1=C(C(=O)OC(C)C)C(c2cccc([N+](=O)[O-])c2)C(C(=O)OC2CN(C(c3ccccc3)c3ccccc3)C2)=C(N)N1 (stereo not drawn) [Azelnidipine]
The inhibition of the first is lower: -3.26% for the first, 8.17% for the second.

Compared with `C[C@@H](O[C@H]1OCCN(Cc2n[nH]c(=O)[nH]2)[C@H]1c1ccc(F)cc1)c1cc(C(F)(F)F)cc(C(F)(F)F)c1` [Aprepitant], `O=C1[C@H](CC[C@H](O)c2ccc(F)cc2)[C@@H](c2ccc(O)cc2)N1c1ccc(F)cc1` [Ezetimibe] is lower in inhibition: 3.37% for the first, -1.34% for the second.

Going from `CC1CNc2c(cccc2S(=O)(=O)N[C@@H](CCCNC(=N)N)C(=O)N2CC[C@@H](C)C[C@@H]2C(=O)O)C1` (stereo partly drawn) [Argatroban] to `CC1(C)S[C@@H]2[C@H](NC(=O)[C@H](NC(=O)N3CCNC3=O)c3ccccc3)C(=O)N2[C@H]1C(=O)O` [Azlocillin sodium], the inhibition falls from 13.5% to -0.915%.

Going from `COC(=O)N[C@H](C(=O)N[C@@H](Cc1ccccc1)[C@@H](O)CN(Cc1ccc(-c2ccccn2)cc1)NC(=O)[C@@H](NC(=O)OC)C(C)(C)C)C(C)(C)C` [Atazanavir] to `CC1=C(C(=O)OCCN(Cc2ccccc2)c2ccccc2)C(c2cccc([N+](=O)[O-])c2)C(P2(=O)OCC(C)(C)CO2)=C(C)N1` (stereo not drawn) [Efonidipine], the inhibition rises from -1.97% to -1.16%.

First: CCOc1nc2cccc(C(=O)OCc3oc(=O)oc3C)c2n1Cc1ccc(-c2ccccc2-c2noc(=O)[nH]2)cc1 [Azilsartan Medoxomil]
Second: CC1=NN(c2ccc(C)c(C)c2)C(=O)/C1=N\Nc1cccc(-c2cccc(C(=O)O)c2)c1O [Eltrombopag Olamine]
The inhibition of the first is lower: -1.99% for the first, 23.7% for the second.

Going from `NS(=O)(=O)c1cc2c(cc1C(F)(F)F)NC(Cc1ccccc1)NS2(=O)=O` (stereo not drawn) [Bendroflumethiazide] to `C[C@]12C=CC(=O)N[C@@H]1CC[C@@H]1[C@@H]2CC[C@]2(C)[C@@H](C(=O)Nc3cc(C(F)(F)F)ccc3C(F)(F)F)CC[C@@H]12` [Dutasteride], the inhibition falls from 11.6% to -2.38%.

First: COc1cc2nccc(Oc3ccc(NC(=O)C4(C(=O)Nc5ccc(F)cc5)CC4)cc3)c2cc1OC [Cabozantinib Malate]
Second: COc1cc2nc(N3CCN(C(=O)C4COc5ccccc5O4)CC3)nc(N)c2cc1OC (stereo not drawn) [Doxazosin mesylate]
The inhibition of the first is lower: 0.386% for the first, 0.919% for the second.

Going from `CO[C@@]1(NC(=O)C2SC(=C(C(N)=O)C(=O)O)S2)C(=O)N2C(C(=O)O)=C(CSc3nnnn3C)CS[C@@H]21` (stereo partly drawn) [Cefotetan] to `COc1ccc(-c2cc(=O)c3c(O)cc(O[C@@H]4O[C@H](CO[C@@H]5O[C@@H](C)[C@H](O)[C@@H](O)[C@H]5O)[C@@H](O)[C@H](O)[C@H]4O)cc3o2)cc1O` [Diosmin], the inhibition falls from 2.14% to -0.378%.

First: CC(C)C(=O)OCC(=O)[C@@]12O[C@H](C3CCCCC3)O[C@@H]1C[C@H]1[C@@H]3CCC4=CC(=O)C=C[C@]4(C)[C@H]3[C@@H](O)C[C@@]12C [Ciclesonide]
Second: CC1(C)O[C@@H]2C[C@H]3[C@@H]4C[C@H](F)C5=CC(=O)C=C[C@]5(C)[C@@]4(F)[C@@H](O)C[C@]3(C)[C@]2(C(=O)CO)O1 [Fluocinolone acetonide]
The inhibition of the first is lower: -0.393% for the first, 0.0249% for the second.

First: C[C@H]1O[C@@H](O[C@H]2[C@@H](O)C[C@H](O[C@H]3[C@@H](O)C[C@H](O[C@H]4CC[C@@]5(C)[C@H](CC[C@@H]6[C@@H]5CC[C@]5(C)[C@@H](C7=CC(=O)OC7)CC[C@]65O)C4)O[C@@H]3C)O[C@@H]2C)C[C@H](O)[C@@H]1O [Digitoxin]
Second: CC1(C)[C@@H](O)CC[C@]2(C)[C@H]3C(=O)C=C4[C@@H]5C[C@@](C)(C(=O)O)CC[C@]5(C)CC[C@@]4(C)[C@]3(C)CC[C@@H]12 [Enoxolone]
The inhibition of the first is lower: 0.197% for the first, 4.01% for the second.

Compared with `C#C[C@]1(O)CC[C@H]2[C@@H]3CCc4cc(O)ccc4[C@H]3CC[C@@]21C` [Ethynyl estradiol], `OCCOCCN1CCN(C(c2ccccc2)c2ccc(Cl)cc2)CC1` (stereo not drawn) [Hydroxyzine Pamoate] is higher in inhibition: -3.17% for the first, 12.9% for the second.

First: Cc1cc(C#N)cc(C)c1Oc1nc(Nc2ccc(C#N)cc2)nc(N)c1Br [Etravirine]
Second: C[C@@H](c1nc(-c2ccc(C#N)cc2)cs1)[C@](O)(Cn1cncn1)c1cc(F)ccc1F [Isavuconazole]
The inhibition of the first is lower: -0.895% for the first, -0.886% for the second.

With `C=CC(=O)N1CCC[C@@H](n2nc(-c3ccc(Oc4ccccc4)cc3)c3c(N)ncnc32)C1` [Ibrutinib] the inhibition was -1.91%.

Same assay, conditions: read-out: Normalized Percent FRET inhibition

`CN1c2c(nc(N)[nH]c2=O)NCC1CNc1ccc(C(=O)N[C@@H](CCC(=O)O)C(=O)O)cc1` (stereo partly drawn) [Calcium N5-methyltetrahydrofolate] showed an inhibition at 100 µM of 3.74%.
